Assay results published in patent US7473415B2, “Near infrared fluorescent contrast agent and method for fluorescence imaging” (Fuji Photo Film Co., Ltd., priority 2002, dated 2009).

Test system: mouse colon carcinoma (colon 26 carcinoma)
Assay: Fluorescence imaging test (Test Example 2), tumor bearing nude mice, excitation 740 nm
Assay type: in vivo
Experimental: Tumor bearing mice were prepared in the same manner as Test Example 1, and conditions for irradiation was the same as those explained in Test Example 1. Compound 5, Compound 7, and Compound 10 were used as test compounds. Each of the test compounds (0.5 mg/ml) was dissolved in physiological saline or phosphate buffer (pH 7.4) and administered to the mice via a tail vein at the dose of 5.0 mg/Kg. For comparison, the following compound (Compound B, 5 mg/kg, i.v.) was administered to the mice.
Light was generated using a tunable, pulsed, solid state laser system consisting of an optical parametric oscillator (OPO) pumped by the third harmonic of a Nd:Yag laser (Coherent Inc.). An excitation wavelength of λex=740 nm was chosen and guided with an optical fiber to the tumor bearing nude mice. The dye-specific fluorescence exitance was imaged using a filter combination (Corion) and an intensified CCD camera (Roper Scientific.) at different times after dye administration (FIG. 4). Fluorescence imagings were taken before administration, and 1 min, 10 min, 30 min, 60 min, 2 hours, 4 hours, 24 hours after intravenous dye administration via the lateral tail venous at a standard dose of 5 mg/kg. In the first 60 min, the body temperature of the animals was kept at 38° C. with heating pad. Fluorescence imaging properties of the compounds were compared in nude mice tumor models. […]

Question: For `CC(/C=C/C=C1/N(CCC(=O)NC(CC(=O)O)C(=O)O)c2ccc3ccccc3c2C1(C)C)=C\C=C\C1=[N+](CCC(=O)NC(CC(=O)O)C(=O)O)c2ccc3ccccc3c2C1(C)C` (centres unmarked) [Compound 5], which “tumor imaging as compared to the reference compound (Compound B)” value (5.0 mg/Kg via tail vein) is on record?
Answer: clear images of tumors at a shorter time

Question: `CC1(C)C(/C=C/C=C/C=C/C=C2/N(CCCCS(=O)(=O)[O-])c3ccc(C(=O)NCC(O)C(O)C(O)C(O)CO)cc3C2(C)C)=[N+](CCCCS(=O)(=O)[O-])c2ccc(C(=O)NCC(O)C(O)C(O)C(O)CO)cc21.[Na+]` (centres unmarked) [Compound B] was tested. Which “position of tumor within 1 hour after the administration” value (5 mg/kg, i.v., FIG. 8) did it give?
Answer: not clear
